Reference: patent publication US9024044B2, “Heteroarylcarboxylic acid ester derivative” (Ajinomoto Co., Inc., priority 2012, dated 2015)
Counter-ions that a name gives are not always drawn.

Legend:
Type in all cases: biochemical
[1] = molecular target: recombinant human enteropeptidase (Homo sapiens (Human), UniProt P98073); assay: Measurement of enteropeptidase inhibitory activity; details: substrate Gly-Asp-Asp-Asp-Asp-Lys-β-Naphtylamide, Tris-HCl pH 8.0, Dixon plot
Method: Measurement of Enteropeptidase Inhibitory Activity
Using a 96 well plate (#3915, Costar), a test compound (25 μL), 400 mM Tris-HCl buffer (pH 8.0, 25 μL) and 0.5 mg/mL fluorescence enzyme substrate (Gly-Asp-Asp-Asp-Asp-Lys-β-Naphtylamide, 25 μL) were mixed, and recombinant human enteropeptidase (R&D Systems, Inc., 25 μL) was added. Using a fluorescence plate reader fmax (Molecular Devices, Inc.), the reaction rate was measured from the time-course changes at excitation wavelength 320 nm and fluorescence wavelength 405 nm. The Ki value was calculated from the concentration of the test compound, reciprocal of reaction rate, and Km value of the enzyme substrate, and by using Dixon plot.

[2] = molecular target: human trypsin; assay: Measurement of trypsin inhibitory activity; details: substrate Boc-Phe-Ser-Arg-AMC, Tris-HCl pH 8.0, Dixon plot
Method: (§1) Measurement of Trypsin Inhibitory Activity
(§2) Using a 96 well plate (#3915, Costar), a test compound (25 μL) was mixed with 20 μM fluorescence enzyme substrate (Boc-Phe-Ser-Arg-AMC, 50 μL) mixed with 200 mM Tris-HCl buffer (pH 8.0), and human trypsin (Sigma, 25 μL) was added. Using a fluorescence plate reader fmax (Molecular Devices, Inc.), the reaction rate was measured from the time-course changes at excitation wavelength 355 nm and fluorescence wavelength 460 nm. The Ki value was calculated from the concentration of the test compound, reciprocal of reaction rate, and Km value of the enzyme substrate, and by using Dixon plot.

[3] = molecular target: human trypsin (Homo sapiens, UniProt P07477); assay: Measurement of trypsin inhibitory activity; details: substrate Boc-Phe-Ser-Arg-AMC, Tris-HCl pH 8.0, Dixon plot
Method: as §1, §2

Sequence of recombinant human enteropeptidase (P98073 whole entry): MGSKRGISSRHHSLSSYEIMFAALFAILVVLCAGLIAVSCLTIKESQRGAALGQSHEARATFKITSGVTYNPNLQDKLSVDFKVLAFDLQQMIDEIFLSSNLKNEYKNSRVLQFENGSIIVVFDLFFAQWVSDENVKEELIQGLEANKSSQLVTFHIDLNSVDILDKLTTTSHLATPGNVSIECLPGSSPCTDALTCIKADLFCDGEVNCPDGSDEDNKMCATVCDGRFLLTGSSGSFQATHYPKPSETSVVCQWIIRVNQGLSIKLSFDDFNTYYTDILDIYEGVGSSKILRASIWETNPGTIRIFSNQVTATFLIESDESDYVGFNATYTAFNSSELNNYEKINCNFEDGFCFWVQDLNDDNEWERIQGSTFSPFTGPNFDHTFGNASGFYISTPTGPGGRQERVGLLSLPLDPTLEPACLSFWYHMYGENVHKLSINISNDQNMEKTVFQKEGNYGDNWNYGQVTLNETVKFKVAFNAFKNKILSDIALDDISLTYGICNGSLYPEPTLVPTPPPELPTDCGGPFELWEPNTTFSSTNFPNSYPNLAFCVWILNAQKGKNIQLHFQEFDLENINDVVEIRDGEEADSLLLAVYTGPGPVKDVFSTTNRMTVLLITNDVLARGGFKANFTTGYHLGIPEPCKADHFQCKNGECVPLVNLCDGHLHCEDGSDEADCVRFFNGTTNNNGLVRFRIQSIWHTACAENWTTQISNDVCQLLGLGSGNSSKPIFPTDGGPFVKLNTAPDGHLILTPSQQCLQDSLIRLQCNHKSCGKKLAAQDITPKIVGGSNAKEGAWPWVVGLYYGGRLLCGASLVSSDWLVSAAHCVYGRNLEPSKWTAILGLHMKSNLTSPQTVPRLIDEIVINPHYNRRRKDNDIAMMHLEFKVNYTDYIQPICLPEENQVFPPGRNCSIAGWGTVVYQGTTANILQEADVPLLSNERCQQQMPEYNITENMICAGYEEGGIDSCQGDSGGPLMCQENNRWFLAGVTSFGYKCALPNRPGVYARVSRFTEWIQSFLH

Row | SMILES | Ki [1] [nM] | Ki [2] [nM] | Ki [3] [nM]
1 | CC(C)(Cc1ccc(C(=O)Oc2ccc(C(=N)N)cc2F)s1)C(=O)NCC(=O)O [Compound 3] | 0.29 | 0.42 | –
2 | CCCN(CC(=O)O)C(=O)C(C)(C)Cc1ccc(C(=O)Oc2ccc(C(=N)N)cc2F)s1 [Compound 10, N-{3-[5-(4-amidino-2-fluoro-phenoxycarbonyl)thiophen-2-yl]-2,2-dimethylpropionyl}-N-propylglycine hydrochloride] | 0.49 | 1.5 | –
3 | CCC(CC)(Cc1ccc(C(=O)Oc2ccc(C(=N)N)cc2F)s1)C(=O)N[C@H](C(=O)O)C(C)C [Compound 13] | 1.56 | 5.18 | –
4 | CCC(CC)(Cc1ccc(C(=O)Oc2ccc(C(=N)N)cc2F)s1)C(=O)N[C@@H](Cc1ccccc1)C(=O)O [Compound 16] | 1.1 | 8.3 | –
5 | C=CCN(CCS(=O)(=O)O)C(=O)C(C)(C)Cc1ccc(C(=O)Oc2ccc(C(=N)N)cc2F)s1 [Compound 23, N-allyl-N-{3-[5-(4-amidino-2-fluoro-phenoxycarbonyl)-thiophen-2-yl]-2,2-dimethylpropionyl}taurine] | 1.81 | 3.17 | –
6 | CC(C)(Cc1ccc(C(=O)Oc2ccc(C(=N)N)cc2F)s1)C(=O)N1CCC(C(=O)O)CC1 [Compound 26] | 1.33 | – | 3.1
7 | CCC(CC)(Cc1ccc(C(=O)Oc2ccc(C(=N)N)cc2F)s1)C(=O)N[C@@H](C)C(=O)O [Compound 27] | 0.73 | – | 1.67
8 | CC[C@H](NC(=O)C(CC)(CC)Cc1ccc(C(=O)Oc2ccc(C(=N)N)cc2F)s1)C(=O)O [Compound 28] | 0.65 | 1.93 | –
9 | CCC[C@H](NC(=O)C(CC)(CC)Cc1ccc(C(=O)Oc2ccc(C(=N)N)cc2F)s1)C(=O)O [Compound 29] | 1.18 | 3.84 | –
10 | CCC(CC)(Cc1ccc(C(=O)Oc2ccc(C(=N)N)cc2F)s1)C(=O)NCCCC(=O)O [Compound 30] | 0.94 | 2.73 | –
11 | CC(C)(Cc1ccc(C(=O)Oc2ccc(C(=N)N)cc2F)s1)C(=O)Nc1ccc(C(=O)O)cc1 [Compound 31] | 1.08 | 2.89 | –
12 | CC(C)(Cc1ccc(C(=O)Oc2ccc(C(=N)N)cc2F)s1)C(=O)Nc1cccc(C(=O)O)c1 [Compound 32] | 1.43 | 0.7 | –
13 | CC(C)(Cc1ccc(C(=O)Oc2ccc(C(=N)N)cc2F)s1)C(=O)N1CC[C@@H](C(=O)O)C1 [Compound 33] | 1.02 | – | 2
14 | CCC(CC)(Cc1ccc(C(=O)Oc2ccc(C(=N)N)cc2F)s1)C(=O)N[C@@H]1COC(=O)C1 [Compound 34] | 2.56 | 2.73 | –
15 | CC(C)(Cc1ccc(C(=O)Oc2ccc(C(=N)N)cc2F)s1)C(=O)N[C@H](C(=O)O)C1CCCCC1 [Compound 35] | 2.56 | – | 3.04
16 | CC(C)(Cc1ccc(C(=O)Oc2ccc(C(=N)N)cc2F)s1)C(=O)N[C@@H](C(=O)O)C1CCCCC1 [Compound 36] | 4.7 | – | 3.07
17 | CC(C)(Cc1ccc(C(=O)Oc2ccc(C(=N)N)cc2F)s1)C(=O)N[C@H](C(=O)O)c1ccccc1 [Compound 37] | 0.96 | – | 1.51
18 | CC(C)(Cc1ccc(C(=O)Oc2ccc(C(=N)N)cc2F)s1)C(=O)N[C@@H](C(=O)O)c1ccccc1 [Compound 38] | 0.97 | – | 1.45
19 | CC(C)(Cc1ccc(C(=O)Oc2ccc(C(=N)N)cc2F)s1)C(=O)Nc1cccnc1 [Compound 39] | 7.56 | – | 3.6
20 | CC(C)(Cc1ccc(C(=O)Oc2ccc(C(=N)N)cc2F)s1)C(=O)Nc1ccc[nH]c1=O [Compound 40] | 6.66 | – | 4.54
21 | CC(C)(Cc1ccc(C(=O)Oc2ccc(C(=N)N)cc2F)s1)C(=O)N1CCC[C@H]1CC(=O)O [Compound 41] | 1.58 | 3.88 | –
22 | CCC(CC)(Cc1ccc(C(=O)Oc2ccc(C(=N)N)cc2F)s1)C(=O)N[C@@H](CCC(N)=O)C(=O)O [Compound 42] | 1.69 | – | 3.88
23 | CCC(CC)(Cc1ccc(C(=O)Oc2ccc(C(=N)N)cc2F)s1)C(=O)N[C@H](CCC(=O)O)C(=O)O [Compound 43] | 0.42 | 1.96 | –
24 | CCC(CC)(Cc1ccc(C(=O)Oc2ccc(C(=N)N)cc2F)s1)C(=O)N[C@@H](CC(N)=O)C(=O)O [Compound 44] | 0.67 | 1.69 | –
25 | COc1ccc(NC(=O)C(C)(C)Cc2ccc(C(=O)Oc3ccc(C(=N)N)cc3F)s2)cn1 [Compound 45] | 4.13 | – | 3.36
26 | CC(C)(Cc1ccc(C(=O)Oc2ccc(C(=N)N)cc2F)s1)C(=O)N1CC(F)(F)C1 [Compound 46] | 5.27 | – | 3.89

Row | SMILES | Ki [1] [nM] | Ki [2] [nM] | Ki [3] [nM]
27 | CC(C)(Cc1ccc(C(=O)Oc2ccc(C(=N)N)cc2F)s1)C(=O)Nc1ccc(O)c(C(=O)O)c1 [Compound 47] | 0.53 | 0.92 | –
28 | CCC(CC)(Cc1ccc(C(=O)Oc2ccc(C(=N)N)cc2F)s1)C(=O)Nc1ccc(CC(=O)O)cc1 [Compound 48] | 2.41 | – | 3.35
29 | CC[C@H](C)[C@@H](CC(=O)O)NC(=O)C(CC)(CC)Cc1ccc(C(=O)Oc2ccc(C(=N)N)cc2F)s1 [Compound 49, N-{3-[5-(4-amidino-2-fluoro-phenoxycarbonyl)thiophen-2-yl]-2,2-diethylpropionyl}-beta-homoisoleucine hydrochloride] | 3.26 | 1.97 | –
30 | CC(C)(Cc1ccc(C(=O)Oc2ccc(C(=N)N)cc2F)s1)C(=O)N1CCc2ccc(C(=O)O)cc2C1 [Compound 50] | 3.46 | – | 3.49
31 | COc1ncccc1NC(=O)C(C)(C)Cc1ccc(C(=O)Oc2ccc(C(=N)N)cc2F)s1 [Compound 51] | 3.75 | – | 1.87
32 | CCC(CC)(Cc1ccc(C(=O)Oc2ccc(C(=N)N)cc2F)s1)C(=O)NCCC[C@H](N)C(=O)O [Compound 52] | 5.53 | – | 5.78
33 | CCC(CC)(Cc1ccc(C(=O)Oc2ccc(C(=N)N)cc2F)s1)C(=O)NCc1ccc(C(=O)O)cc1 [Compound 53] | 2.69 | 9.27 | –
34 | CC(C)(Cc1ccc(C(=O)Oc2ccc(C(=N)N)cc2F)s1)C(=O)N1C[C@@H]1C(=O)O [Compound 54] | 1.76 | – | 1.53
35 | CC(C)(Cc1ccc(C(=O)Oc2ccc(C(=N)N)cc2F)s1)C(=O)NC1(C(=O)O)CCC1 [Compound 56] | 0.51 | 1.49 | –
36 | CC(C)(Cc1ccc(C(=O)Oc2ccc(C(=N)N)cc2F)s1)C(=O)NC1(C(=O)O)CC1 [Compound 57] | 0.67 | 1.01 | –
37 | CC(C)(Cc1ccc(C(=O)Oc2ccc(C(=N)N)cc2F)s1)C(=O)NC(CCC(=O)O)(CCC(=O)O)CCC(=O)O [Compound 58] | 0.71 | – | 1.59
38 | CC(C)(Cc1ccc(C(=O)Oc2ccc(C(=N)N)cc2F)s1)C(=O)Nc1cc(C(=O)O)cc(C(=O)O)c1 [Compound 59] | 0.31 | – | 0.49
39 | CC(C)(Cc1ccc(C(=O)Oc2ccc(C(=N)N)cc2F)s1)C(=O)N1C[C@H]1C(=O)O [Compound 61] | 1.13 | – | 0.96
40 | CCC(CC)(Cc1ccc(C(=O)Oc2ccc(C(=N)N)cc2F)s1)C(=O)NCCCCC(=O)O [Compound 62] | 0.98 | 5.17 | –
41 | CC(C)(Cc1ccc(C(=O)Oc2ccc(C(=N)N)cc2F)s1)C(=O)NCCc1nnn[nH]1 [Compound 64] | 0.53 | – | 1.6
42 | CCC(CC)(Cc1ccc(C(=O)Oc2ccc(C(=N)N)cc2F)s1)C(=O)Nc1cc(C(=O)O)cc(C(=O)O)c1 [Compound 66] | 0.71 | – | 1.58
43 | CCC(CC)(Cc1ccc(C(=O)Oc2ccc(C(=N)N)cc2F)s1)C(=O)Nc1cc(C(=O)O)cc(C(=O)OC)c1 [Compound 67] | 3.73 | – | 4.4
44 | CC(C)(Cc1ccc(C(=O)Oc2ccc(C(=N)N)cc2F)s1)C(=O)Nc1ccc(C(=O)O)c(C(=O)O)c1 [Compound 68] | 0.24 | – | 0.21
45 | CC(C)(Cc1ccc(C(=O)Oc2ccc(C(=N)N)cc2F)s1)C(=O)N[C@@H](C(=O)O)c1ccc(O)cc1 [Compound 69] | 0.72 | – | 1.14
46 | CC(C)(Cc1ccc(C(=O)Oc2ccc(C(=N)N)cc2F)s1)C(=O)N[C@H]1CC[C@@H](C(=O)O)CC1 [Compound 70] | 1.11 | – | 1.7
47 | CCC(CC)(Cc1ccc(C(=O)Oc2ccc(C(=N)N)cc2F)s1)C(=O)NCCCCCC(=O)O [Compound 71] | 4.97 | – | 8.01
48 | CC(C)(Cc1ccc(C(=O)Oc2ccc(C(=N)N)cc2F)s1)C(=O)N1CC(C(=O)O)C1 [Compound 72] | 0.63 | – | 1.85
49 | CC(C)(Cc1ccc(C(=O)Oc2ccc(C(=N)N)cc2F)s1)C(=O)Nc1ccccc1C(=O)O [Compound 73] | 2.41 | – | 3.65
50 | CC(C)(Cc1ccc(C(=O)Oc2ccc(C(=N)N)cc2F)s1)C(=O)Nc1cc(C(=O)O)ccc1C(=O)O [Compound 75] | 0.39 | – | 3.72
51 | CC(C)(Cc1ccc(C(=O)Oc2ccc(C(=N)N)cc2F)s1)C(=O)N[C@H]1CC[C@H](C(=O)O)CC1 [Compound 78] | 1.53 | – | 2.57
52 | CCC(CC)(Cc1ccc(C(=O)Oc2ccc(C(=N)N)cc2F)s1)C(=O)NC1(C(=O)O)CC1 [Compound 79] | 1.12 | – | 2.19
